These results are taken from ChEMBL document CHEMBL1121379, “Some short-chain N6-substituted adenosine analogues with antitumor properties” (1980).

The structures appear in SMILES notation. Several values for one entry are separate records, joined by “and”; a condition that tells them apart may be missing. Identical values can stand only once.

Holding throughout (assay type): functional
The nature of experiment [1]: Concentration required for 50% growth inhibition of the following cell lines Carcinoma TA-3 cells. The note with it: Mus musculus, TA3; read-out: ID50 (the source's name).
Experiment [2] can be described thus: Concentration required for 50% growth inhibition of the following cell lines human fibro blast cells. The note with it: read-out: ID50 (the source's name).
In the next experiment the test system is Burkitts lymphoma cell. Description: Concentration required for 50% growth inhibition of the following cell lines human burkitt lymphoma cells. The note with it: read-out: ID50 (the source's name).
In the next experiment the test system is L1210. The experiment in a line: Concentration required for 50% growth inhibition of the following cell lines Leukemia L-1210 cells. Particulars: Mus musculus, read-out: ID50 (the source's name).
For another experiment, the system named is MCF7. Description: Concentration required for 50% growth inhibition of human breast tumor cells MCF-7 human breast carcinoma cells. Particulars: read-out: ID50 (the source's name).
The test system of experiment [3] is Mus musculus. The experiment in a line: antitumor activity against mouse leukemia, L-1210(DBA/2 Ha Mice) % increase in life span at 3.12 mg/kg of dose per day. The note with it: L1210, dose 3.12 mg/kg.
In experiment [4] the test system is Mus musculus. The experiment in a line: Antitumor activity against slow growing spontaneous mammary tumors in the DBA/2 Ha-DD mouse % increased in life span 3.8 mg/kg/day x 5 melphalan + 50 mg/kg/day.
Experiment [5] deals with Mus musculus. Description: Antitumor activity against slow growing spontaneous mammary tumors in the DBA/2 Ha-DD mouse % increased in life span 3.8 mg/kg/day x 5 melphalan + 50 mg/kg/day compound.
Experiment [6] relates to Mus musculus. The experiment in a line: Antitumor activity against slow growing spontaneous mammary tumors in the DBA/2 Ha-DD mouse number of days reacquired fro tumor growth 3.8 mg/kg/day x 5 melphalan once in 5 days. Set-up: unit: days.
The test system of experiment [7] is Mus musculus. The experiment in a line: Antitumor activity against mouse leukemia, L-1210(DBA/2 Ha Mice) mean life span ( days) of the mouse after the dosage at 1.56 mg/kg of dose per day.
Experiment [8] deals with Mus musculus. The experiment in a line: Antitumor activity against slow growing spontaneous mammary tumors in the DBA/2 Ha-DD mouse mean life span in days at 50 mg/kg give 5 times once in 5 days.
Experiment [9] is filed under the species Mus musculus. Description: Concentration required for 50% growth inhibition of the following cell lines mouse fibro blasts. The note with it: read-out: ID50 (the source's name).
The nature of experiment [10]: Concentration required for 50% growth inhibition of human breast tumor cells SW-613 human breast adenocarcinoma cells. Particulars: SW613, read-out: ID50 (the source's name).
Experiment [11] is described as follows: Concentration required for 50% growth inhibition of the following cell lines sarcoma S-180 cells. The note with it: Mus musculus, read-out: ID50 (the source's name).
A short description of experiment [12]: Concentration required for 50% growth inhibition of the following cell lines human bladder carcinoma cells. Particulars: read-out: ID50 (the source's name).
The test system of experiment [13] is Mus musculus. Description: Antitumor activity against mouse leukemia, L-1210(DBA/2 Ha Mice) % increase in life span at 3.12 mg/kg of dose per day. Particulars: for ILS at 3.12 mg/kg: Mus musculus, L1210, dose 3.12 mg/kg.
A further experiment concerns HeLa. The experiment in a line: Concentration required for 50% growth inhibition of the following cell lines Hela cells. Particulars: Homo sapiens, read-out: ID50 (the source's name).
Experiment [14] deals with Mus musculus. The experiment in a line: Antitumor activity against mouse leukemia, L-1210(DBA/2 Ha Mice) mean life span (days) of the mouse after fractionated dosage(dose divided in two halves and administered in two daily injections) at 6.25 mg/kg of dose per day.

As to `C=CCNc1ncnc2c1ncn2[C@@H]1O[C@H](CO)[C@@H](O)[C@H]1O`, the IC50 in experiment [1] worked out at 3 µM; in experiment [2] it was 2.7 µM; in the experiment with Burkitts lymphoma cell, 2.3 µM; in the experiment on L1210, 12 µM; in the experiment on MCF7, 1.4 µM; in the experiment filed under Mus musculus [9], 14 µM. The figures for the IC50 in experiment [10], in experiment [11] and in experiment [12] were 50 µM, 20 µM and 7.5 µM, respectively. The compound also gave an ILS at 3.12 mg/kg with Mus musculus [3] of 8%. Moreover, the ILS was 42.8% in the experiment with Mus musculus [4]; 82.5% and 38.7% in the experiment with Mus musculus [5]. In the experiment on Mus musculus [6], the Tumor half growth is 16 and 26 and 30. In addition, the Life span in the experiment on Mus musculus [7] (1.56 mg/kg) was 8.3 and 10; with Mus musculus [8] (50 mg/kg) it was 46.6 and 48.
Consider `CC(C)Nc1ncnc2c1ncn2[C@@H]1O[C@H](CO)[C@@H](O)[C@H]1O`, for which the IC50 in experiment [1] turned out to be 13 µM; in experiment [2] it was 6.5 µM; in the experiment with Burkitts lymphoma cell it was 27 µM; in the experiment on L1210, 19 µM; with MCF7, 6.3 µM; in the experiment listed under Mus musculus [9], 20 µM. For the same compound, the IC50 in [10] turned out to be 150 µM; in experiment [11], 30 µM; in [12], 11 µM. The increase in life span (ILS) with Mus musculus [13] (dose 3.12 mg/kg) is 14.7% and 17.4% and 37.4%; in the experiment on Mus musculus [5], 25.5% and 60% and 63.1%. Besides, the Tumor half growth in the experiment with Mus musculus [6] is 17 and 24. In addition, the Life span in the experiment with Mus musculus [7] is 7.3; with Mus musculus [8] (50 mg/kg), 63.3 and 54.8 and 23.6.
For `C=C(C)CNc1ncnc2c1ncn2C1O[C@H](CO)[C@@H](O)[C@H]1O` (stereo partly drawn), the IC50 in [1] was 18 µM; in experiment [2], 1.5 µM; in the experiment on Burkitts lymphoma cell, 11 µM; in the experiment on L1210, 19 µM; in the experiment filed under Mus musculus [9], 25 µM; in experiment [10] it was 4 µM. Further, the IC50 in [12] was found to be 9 µM. In addition, the ILS with Mus musculus [5] was found to be 19%. The compound also returned a Tumor half growth in the experiment with Mus musculus [6] of 15. The same compound displayed a Life span in the experiment on Mus musculus [7] of 30.
As for `C#CCNc1ncnc2c1ncn2C1O[C@H](CO)[C@@H](O)[C@H]1O` (stereo partly drawn), the IC50 in [1] was 2.5 µM; in the experiment on HeLa it was 3.5 µM; in experiment [2], 2.8 µM; with Burkitts lymphoma cell, 8.3 µM; in the experiment on L1210, 1 µM; in the experiment on MCF7 it was 1.6 µM. Also, the figures for the IC50 (in the experiment listed under Mus musculus [9]; in experiment [12]) were 3.1 µM and 3.8 µM, respectively. The compound further yielded an ILS at 3.12 mg/kg in the experiment on Mus musculus [13] of 20%. In addition, the ILS in the experiment on Mus musculus [5] amounted to 60%. Further, the Tumor half growth in the experiment with Mus musculus [6] is 18. In the experiment on Mus musculus [7], this compound gave a Life span of 8.2.
Turning to `OC[C@H]1O[C@@H](n2cnc3c(NCc4ccccc4)ncnc32)[C@H](O)[C@@H]1O` [N6-BENZYLADENOSINE], the IC50 came out at 14 µM in experiment [1]; 11 µM with Burkitts lymphoma cell; 8.5 µM in the experiment with L1210; 22 µM with MCF7; 4 µM in [10]; 45 µM in [11]. In the experiment with Mus musculus [13], this compound gave an ILS at 3.12 mg/kg of 41%. Further, in the experiment on Mus musculus [5], the ILS was 10.9% and 26%. Moreover, the Tumor half growth in the experiment with Mus musculus [6] is 20 and 21. Further, the Life span is on record as 9.7 with Mus musculus [7], 38.8 in the experiment on Mus musculus [14] and 62.6 in the experiment with Mus musculus [8].

As usually defined, the ILS is the gain in survival time of treated over control animals, in per cent.
